This note sets out measurements from ChEMBL document CHEMBL5303304, “EUbOPEN Chemogenomics Library - IncuCyte” (2023).

What all share (format): toxicity, cell-based
One data set relates to HEK-293T. Kind of data set: Incucyte cell viability with HEK293T. Conditions: human, 10 µM, compound concentration 10 uM.
Another data set concerns Fibroblast. Kind of data set: Incucyte cell viability with human fibroblast. Conditions: 10 µM, compound concentration 10 uM.
The next data set deals with U2OS. Kind of data set: Incucyte cell viability with U2OS. Conditions: human, 10 µM, compound concentration 10 uM.
Note: unitless GR value; below 1 slowed growth and below 0 cell loss.

As for `Cc1nc(Nc2cnn(C3CCNCC3)c2)nc2c1N(C)C(=O)c1cc3ccccc3cc1N2C`, the “Growth Rate” value stood at 0.03 with HEK-293T (6 h, replicate number 1); 0.26 in the data set with HEK-293T (6 h, replicate number 2); 0.41 with HEK-293T (12 h, replicate number 1); 0.67 in the data set on HEK-293T (12 h, replicate number 2); 0.48 in the data set on HEK-293T (18 h, replicate number 1); 0.63 in the data set with HEK-293T (18 h, replicate number 2). For the same molecule, the “Growth Rate” value with HEK-293T (24 h, replicate number 1) is listed as 0.52; in the data set with HEK-293T (24 h, replicate number 2), 0.7; in the data set on Fibroblast (6 h, replicate number 1) it was -0.01; in the data set with Fibroblast (6 h, replicate number 2) it was 0.56; in the data set on Fibroblast (12 h, replicate number 1) it was -0.05; in the data set on Fibroblast (12 h, replicate number 2), 0.26. Besides, the “Growth Rate” value in the data set with Fibroblast (18 h, replicate number 1) is listed as -0.22; in the data set with Fibroblast (18 h, replicate number 2), 0.06; in the data set with Fibroblast (24 h, replicate number 1), -0.14; in the data set on Fibroblast (24 h, replicate number 2), 0.17; in the data set with U2OS (6 h, replicate number 1), 0.19; in the data set on U2OS (6 h, replicate number 2) it was 0.81. Further, the “Growth Rate” value in the data set on U2OS (12 h, replicate number 1) is given as -0.83; in the data set with U2OS (12 h, replicate number 2) it was 0.83; with U2OS (18 h, replicate number 1), 0.36; in the data set with U2OS (18 h, replicate number 2) it was 0.65; in the data set with U2OS (24 h, replicate number 1) it was 0.58; in the data set on U2OS (24 h, replicate number 2), 0.62.

In the case of `C=CC(=O)Nc1cccc(C(=O)Nc2ccc(NC(=O)c3cccc(-c4ccn[nH]4)n3)cc2)c1`, the “Growth Rate” value with HEK-293T (0 h, replicate number 2) is on record as 0.5; in the data set with HEK-293T (6 h, replicate number 1), 0.54; with HEK-293T (6 h, replicate number 2), 0.82; with HEK-293T (12 h, replicate number 2), 0.37; in the data set with HEK-293T (18 h, replicate number 1) it was 0.81; in the data set with HEK-293T (18 h, replicate number 2) it was 0.59. The “Growth Rate” value is reported as 0.55 in the data set on HEK-293T (24 h, replicate number 2); 0 with Fibroblast (0 h, replicate number 1); -0.7 with Fibroblast (6 h, replicate number 1); -0.99 in the data set on U2OS (0 h, replicate number 1); -0.56 with U2OS (0 h, replicate number 2); 0.92 with U2OS (24 h, replicate number 2).

Take `C[C@@H](C(N)=O)[C@H](N)c1nc2cc(C(C)(C)C)ccc2[nH]1` [PF-06305591]: the “Growth Rate” value is reported as 0.51 with HEK-293T (6 h, replicate number 2); 0.9 in the data set on HEK-293T (12 h, replicate number 2); 0.91 in the data set with HEK-293T (18 h, replicate number 2); 0.94 with HEK-293T (24 h, replicate number 2); 0.3 in the data set on Fibroblast (0 h, replicate number 1); -0.98 in the data set with Fibroblast (6 h, replicate number 1). The “Growth Rate” value is -0.52 with Fibroblast (12 h, replicate number 1); 0.77 in the data set on Fibroblast (18 h, replicate number 2); -0.1 with U2OS (0 h, replicate number 1); -0.8 with U2OS (0 h, replicate number 2); 0.69 in the data set with U2OS (12 h, replicate number 1); 0.86 in the data set with U2OS (12 h, replicate number 2). The “Growth Rate” value in the data set on U2OS (18 h, replicate number 2) turned out to be 0.91; in the data set with U2OS (24 h, replicate number 1), 0.95; with U2OS (24 h, replicate number 2) it was 0.99.

Take `O=C(Cc1ccccc1[N+](=O)[O-])Nc1ccc(-c2ccc(C(O)(C(F)(F)F)C(F)(F)F)cc2F)cc1`: the “Growth Rate” value in the data set on HEK-293T (0 h, replicate number 1) is 0.09; in the data set on HEK-293T (0 h, replicate number 2) it was -0.97; in the data set on HEK-293T (6 h, replicate number 1), 0.35; with HEK-293T (6 h, replicate number 2) it was 0.13; in the data set with HEK-293T (12 h, replicate number 1), 0.73; in the data set with HEK-293T (12 h, replicate number 2), 0.64. The “Growth Rate” value in the data set on HEK-293T (18 h, replicate number 1) is on record as 0.7; in the data set on HEK-293T (18 h, replicate number 2), 0.6; in the data set on HEK-293T (24 h, replicate number 1), 0.78; with HEK-293T (24 h, replicate number 2) it was 0.74; with Fibroblast (6 h, replicate number 1) it was -0.02; in the data set on Fibroblast (6 h, replicate number 2), -0.05. For the same molecule, the “Growth Rate” value with Fibroblast (12 h, replicate number 1) is recorded as 0.45; with Fibroblast (12 h, replicate number 2), 0.28; in the data set on Fibroblast (18 h, replicate number 1), 0.13; in the data set on Fibroblast (18 h, replicate number 2) it was -0.04; in the data set with Fibroblast (24 h, replicate number 1) it was -0.02; in the data set on Fibroblast (24 h, replicate number 2), -0.14. Also, the “Growth Rate” value in the data set on U2OS (6 h, replicate number 2) was 0.87; in the data set on U2OS (12 h, replicate number 2), 0.85; in the data set with U2OS (18 h, replicate number 2), 0.73; in the data set on U2OS (24 h, replicate number 2) it was 0.66.

Take `CC(C)(C)c1cc(NC(=O)c2csc(Nc3ccccn3)n2)no1`: the “Growth Rate” value is recorded as -0.14 with HEK-293T (6 h, replicate number 1); -0.51 in the data set on HEK-293T (6 h, replicate number 2); 0.04 in the data set on HEK-293T (12 h, replicate number 1); -0.02 in the data set with HEK-293T (12 h, replicate number 2); 0.08 in the data set on HEK-293T (18 h, replicate number 1); 0.01 with HEK-293T (18 h, replicate number 2). Further, the “Growth Rate” value is on record as 0.31 with HEK-293T (24 h, replicate number 1); 0.2 with HEK-293T (24 h, replicate number 2); 0.76 with Fibroblast (6 h, replicate number 1); -0.67 in the data set with Fibroblast (6 h, replicate number 2); 0.84 in the data set on Fibroblast (12 h, replicate number 1); 0.03 in the data set on Fibroblast (12 h, replicate number 2). Further, the “Growth Rate” value is on record as 0.21 in the data set on Fibroblast (18 h, replicate number 1); 0.35 with Fibroblast (18 h, replicate number 2); 0.31 with Fibroblast (24 h, replicate number 1); 0.35 with Fibroblast (24 h, replicate number 2); 0.58 in the data set on U2OS (0 h, replicate number 1); 0.51 in the data set with U2OS (6 h, replicate number 1). The “Growth Rate” value was 0.72 in the data set on U2OS (12 h, replicate number 1); 0.69 in the data set with U2OS (12 h, replicate number 2); 0.81 in the data set on U2OS (18 h, replicate number 1); 0.65 with U2OS (24 h, replicate number 1); 0.97 in the data set with U2OS (24 h, replicate number 2).

For the molecule `Cc1cc(Nc2cc(N)ncn2)c(=O)n2c1C(=O)NC21CCCCC1` [TOMIVOSERTIB], the “Growth Rate” value is 0.56 in the data set with HEK-293T (0 h, replicate number 2); 0.32 in the data set with HEK-293T (6 h, replicate number 1); -1 in the data set on Fibroblast (0 h, replicate number 2); 0.58 with Fibroblast (6 h, replicate number 1); -0.8 in the data set on Fibroblast (6 h, replicate number 2); -1 with Fibroblast (12 h, replicate number 1). Besides, the “Growth Rate” value in the data set with U2OS (0 h, replicate number 1) worked out at 0.95; in the data set with U2OS (0 h, replicate number 2), 0.6; with U2OS (6 h, replicate number 2), 0.49; in the data set with U2OS (12 h, replicate number 1) it was 0.96; with U2OS (18 h, replicate number 1), 0.93; with U2OS (18 h, replicate number 2), 0.92. For the same molecule, the “Growth Rate” value with U2OS (24 h, replicate number 1) is reported as 0.88; in the data set with U2OS (24 h, replicate number 2), 0.85.

As for `CN(C)CCCNc1ccnc(Nc2cccc(Cl)c2)n1`, the “Growth Rate” value is given as -0.38 in the data set with HEK-293T (6 h, replicate number 1); -0.19 with HEK-293T (12 h, replicate number 1); -0.09 with HEK-293T (12 h, replicate number 2); -0.03 with HEK-293T (18 h, replicate number 1); 0.04 in the data set with HEK-293T (18 h, replicate number 2); 0.02 in the data set with HEK-293T (24 h, replicate number 1). Further, the “Growth Rate” value in the data set on HEK-293T (24 h, replicate number 2) is on record as 0.29; with Fibroblast (0 h, replicate number 1), -0.99; with Fibroblast (0 h, replicate number 2) it was 0.25; with Fibroblast (6 h, replicate number 1), 0.3; with Fibroblast (6 h, replicate number 2) it was 0; in the data set with Fibroblast (12 h, replicate number 1), 0.88. The “Growth Rate” value in the data set on Fibroblast (12 h, replicate number 2) is 0.34; in the data set on Fibroblast (18 h, replicate number 1), 0.67; with Fibroblast (18 h, replicate number 2), 0.45; in the data set on Fibroblast (24 h, replicate number 1), 0.56; in the data set with Fibroblast (24 h, replicate number 2), 0.38; in the data set with U2OS (0 h, replicate number 1), -1. Besides, the “Growth Rate” value is listed as -0.98 with U2OS (6 h, replicate number 1); 0.82 with U2OS (6 h, replicate number 2); 0.65 in the data set on U2OS (12 h, replicate number 2); 0.64 in the data set on U2OS (18 h, replicate number 2); 0.47 with U2OS (24 h, replicate number 2).

On to `COCCN(C)c1ccc(NC(=O)/C=C(\C)c2ccc3ccccc3c2)c(C(=O)O)c1`, for which the “Growth Rate” value with HEK-293T (0 h, replicate number 1) is listed as 0.87; in the data set with HEK-293T (0 h, replicate number 2) it was -0.37; with Fibroblast (0 h, replicate number 2) it was -0.29; in the data set on U2OS (0 h, replicate number 1), 0.79; in the data set on U2OS (6 h, replicate number 1) it was 0.9; in the data set with U2OS (12 h, replicate number 1), 0.72. Further, the “Growth Rate” value in the data set on U2OS (12 h, replicate number 2) amounted to 0.92; with U2OS (18 h, replicate number 1) it was 0.88; in the data set with U2OS (24 h, replicate number 1), 0.91.
